The assay concerns the target T1, KRAS G12C 1-169, his-tagged protein, GDP-loaded (Homo sapiens, UniProt P01116, G12C).
T1 construct: KRAS G12C 1-169, his-tagged protein, GDP-loaded
Nature of the assay: Covalent binding (% modification) to KRAS G12C by mass spectrometry. Also: test concentration or dose not given here. The note with it: covalent binding to KRAS G12C after a three minute incubation period.

Structures are written as SMILES.

As for `C=CC(=O)N1C[C@H](C)N(c2nc(OCCN3CCC(F)(F)C3)nc3c(F)c(-c4c(O)cccc4F)c(Cl)cc23)C[C@H]1C` [Compound 203, 1-((2R,5S)-4-(6-chloro-2-(2-(3,3-difluoropyrrolidin-1-yl)ethoxy)-8-fluoro-7-(2-fluoro-6-hydroxyphenyl)quinazolin-4-yl)-2,5-dimethyl-piperazin-1-yl) prop-2-en-1-one], the Binding % result is on record as “+++ (+++ indicates binding activity greater than 90%)”. Turning to `C=CC(=O)N1C[C@H](C)N(c2nc(Oc3ccnn3C)nc3c(F)c(-c4c(C)ccc5[nH]ncc45)c(Cl)cc23)C[C@H]1C` [Compound 204, 1-((2R,5S)-4-(6-chloro-8-fluoro-7-(5-methyl-1H-indazol-4-yl)-2-((1-methyl-1H-pyrazol-5-yl)oxy)quinazolin-4-yl)-2,5-dimethyl-piperazin-1-yl) prop-2-en-1-one], the Binding % entry is recorded as “++ (++ indicates binding activity from 50 to 90%)”. As for `C=CC(=O)N1C[C@H](C)N(c2nc(Oc3ccnn3C)nc3c(F)c(-c4cc(O)cc5ccccc45)c(Cl)cc23)C[C@H]1C` [Compound 205, 1-((2R,5S)-4-(6-chloro-8-fluoro-7-(3-hydroxy-naphthalen-1-yl)-2-((1-methyl-1H-pyrazol-5-yl)oxy)quinazolin-4-yl)-2,5-dimethyl-piperazin-1-yl) prop-2-en-1-one], the Binding % entry was “++ (++ indicates binding activity from 50 to 90%)”.

As for `C=CC(=O)N1C[C@H](C)N(c2nc(N3CC(N(C)C)C3)nc3c(F)c(-c4c(O)cccc4F)c(C(F)(F)F)cc23)C[C@H]1C` [Compound 206, 1-((2R,5S)-4-(2-(3-(dimethylamino)azetidin-1-yl)-8-fluoro-7-(2-fluoro-6-hydroxyphenyl)-6-(trifluoromethyl)quinazolin-4-yl)-2,5-dimethyl-piperazin-1-yl) prop-2-en-1-one], the Binding % result is listed as “+++ (+++ indicates binding activity greater than 90%)”. The same measure for `C=CC(=O)N1C[C@H](C)N(c2nc(Oc3ccnn3C)nc3c(F)c(-c4c(O)cccc4F)c(Cl)cc23)C[C@H]1C` [Compound 208, 1-((2R,5S)-4-(6-chloro-8-fluoro-7-(2-fluoro-6-hydroxyphenyl)-2-((1-methyl-1H-pyrazol-5-yl)oxy)quinazolin-4-yl)-2,5-dimethyl-piperazin-1-yl) prop-2-en-1-one]: “+++ (+++ indicates binding activity greater than 90%)”. Turning to `C=CC(=O)N1C[C@H](C)N(c2nc(OCCN3CCC(F)(F)C3)nc3c(F)c(-c4c(C)ccc5[nH]ncc45)c(Cl)cc23)C[C@H]1C` [Compound 209, 1-((2R,5S)-4-(6-chloro-2-(2-(3,3-difluoropyrrolidin-1-yl)ethoxy)-8-fluoro-7-(5-methyl-1H-indazol-4-yl)quinazolin-4-yl)-2,5-dimethyl-piperazin-1-yl) prop-2-en-1-one], the Binding % result is listed as “+++ (+++ indicates binding activity greater than 90%)”.

In the case of `C=CC(=O)N1C[C@H](C)N(c2nc(OCCCN(C)C)nc3c(F)c(-c4cc(O)cc5ccccc45)c(C(F)(F)F)cc23)C[C@H]1C` [Compound 210, 1-((2R,5S)-4-(2-(3-(dimethylamino)propoxy)-8-fluoro-7-(3-hydroxy-naphthalen-1-yl)-6-(trifluoromethyl)quinazolin-4-yl)-2,5-dimethyl-piperazin-1-yl) prop-2-en-1-one], the Binding % entry is “+++ (+++ indicates binding activity greater than 90%)”. `C=CC(=O)N1C[C@H](C)N(c2nc(N3CC(N(C)C)C3)nc3c(F)c(-c4c(O)ccc5ccccc45)c(Cl)cc23)C[C@H]1C` [Compound 211, 1-((2R,5S)-4-(6-chloro-2-(3-(dimethylamino)azetidin-1-yl)-8-fluoro-7-(2-hydroxynaphthalen-1-yl)quinazolin-4-yl)-2,5-dimethyl-piperazin-1-yl) prop-2-en-1-one]: the Binding % entry was “++ (++ indicates binding activity from 50 to 90%)”. In the case of `C=CC(=O)N1C[C@H](C)N(c2nc(OCCN3CCC(F)(F)C3)nc3c(F)c(-c4c(O)ccc5ccccc45)c(Cl)cc23)C[C@H]1C` [Compound 213, 1-((2R,5S)-4-(6-chloro-2-(2-(3,3-difluoropyrrolidin-1-yl)ethoxy)-8-fluoro-7-(2-hydroxynaphthalen-1-yl)quinazolin-4-yl)-2,5-dimethyl-piperazin-1-yl) prop-2-en-1-one], the Binding % entry is “+ (+ indicates binding activity greater than 0% and up to 50%)”. The entry for `C=CC(=O)N1C[C@H](C)N(c2nc(N3CC(N(C)C)C3)nc3c(F)c(-c4c(F)cccc4OC(C)=O)c(Cl)cc23)C[C@H]1C` [Compound 214, 2-(4-((2S,5R)-4-acryloyl-2,5-dimethylpiperazin-1-yl)-6-chloro-2-(3-(dimethylamino)azetidin-1-yl)-8-fluoroquinazolin-7-yl)-3-fluoro-phenyl acetate] is “+ (+ indicates binding activity greater than 0% and up to 50%)”; for `C=CC(=O)N1C[C@H](C)N(c2nc(OCCCN(C)C)nc3c(F)c(-c4c(C)ccc5[nH]ncc45)c(C(F)(F)F)cc23)C[C@H]1C` [Compound 215, 1-((2R,5S)-4-(2-(3-(dimethylamino)propoxy)-8-fluoro-7-(5-methyl-1H-indazol-4-yl)-6-(trifluoromethyl)quinazolin-4-yl)-2,5-dimethyl-piperazin-1-yl) prop-2-en-1-one] it is “+++ (+++ indicates binding activity greater than 90%)”; for `C=CC(=O)N1C[C@H](C)N(c2nc(Oc3cnn(C)c3)nc3c(F)c(-c4cc(O)cc5ccccc45)c(Cl)cc23)C[C@H]1C` [Compound 216, 1-((2R,5S)-4-(6-chloro-8-fluoro-7-(3-hydroxy-naphthalen-1-yl)-2-(1-methyl-1H-pyrazol-4-yloxy)quinazolin-4-yl)-2,5-dimethyl-piperazin-1-yl) prop-2-en-1-one] it is “++ (++ indicates binding activity from 50 to 90%)”. The entry for `C=CC(=O)N1C[C@H](C)N(c2nc(Oc3cnn(C)c3)nc3c(F)c(-c4c(C)ccc5[nH]ncc45)c(Cl)cc23)C[C@H]1C` [Compound 217, 1-((2R,5S)-4-(6-chloro-8-fluoro-7-(5-methyl-1H-indazol-4-yl)-2-(1-methyl-1H-pyrazol-4-yloxy)quinazolin-4-yl)-2,5-dimethyl-piperazin-1-yl) prop-2-en-1-one] is “++ (++ indicates binding activity from 50 to 90%)”; for `C=CC(=O)N1C[C@H](C)N(c2nc(OCCCN(C)C)nc3c(F)c(-c4c(O)cccc4F)c(C(F)(F)F)cc23)C[C@H]1C` [Compound 218, 1-((2R,5S)-4-(2-(3-(dimethylamino)propoxy)-8-fluoro-7-(2-fluoro-6-hydroxyphenyl)-6-(trifluoromethyl)quinazolin-4-yl)-2,5-dimethyl-piperazin-1-yl) prop-2-en-1-one] it is “+++ (+++ indicates binding activity greater than 90%)”; for `C=CC(=O)N1C[C@H](C)N(c2nc(OCCCN3CCC(F)(F)C3)nc3c(F)c(-c4cc(O)cc5ccccc45)c(Cl)cc23)C[C@H]1C` [Compound 221, 1-((2R,5S)-4-(6-chloro-2-(3-(3,3-difluoropyrrolidin-1-yl)propoxy)-8-fluoro-7-(3-hydroxynaphthalen-1-yl)quinazolin-4-yl)-2,5-dimethyl-piperazin-1-yl) prop-2-en-1-one] it is “+ (+ indicates binding activity greater than 0% and up to 50%)”. Take `C=CC(=O)N1C[C@H](C)N(c2nc(Oc3cn[nH]c3)nc3c(F)c(-c4c(O)cccc4F)c(Cl)cc23)C[C@H]1C` [Compound 222, 1-((2R,5S)-4-(2-(1H-pyrazol-4-yloxy)-6-chloro-8-fluoro-7-(2-fluoro-6-hydroxy-phenyl)quinazolin-4-yl)-2,5-dimethyl-piperazin-1-yl) prop-2-en-1-one]: the Binding % result is on record as “++ (++ indicates binding activity from 50 to 90%)”. As to `C=CC(=O)N1C[C@H](C)N(c2nc(Oc3cn[nH]c3)nc3c(F)c(-c4c(C)ccc5[nH]ncc45)c(Cl)cc23)C[C@H]1C` [Compound 223, 1-((2R,5S)-4-(2-(1H-pyrazol-4-yloxy)-6-chloro-8-fluoro-7-(5-methyl-1H-indazol-4-yl)quinazolin-4-yl)-2,5-dimethyl-piperazin-1-yl) prop-2-en-1-one], the Binding % entry is “++ (++ indicates binding activity from 50 to 90%)”. `C=CC(=O)N1C[C@H](C)N(c2nc(OCCCN(C)C)nc3c(F)c(-c4c(O)ccc5ccccc45)c(Cl)cc23)C[C@H]1C` [Compound 224, 1-((2R,5S)-4-(6-chloro-2-(3-(dimethylamino)propoxy)-8-fluoro-7-(2-hydroxy-naphthalen-1-yl)quinazolin-4-yl)-2,5-dimethyl-piperazin-1-yl) prop-2-en-1-one]: the Binding % result was “++ (++ indicates binding activity from 50 to 90%)”. The same measure for `C=CC(=O)N1C[C@H](C)N(c2nc(Oc3cnn(C)c3)nc3c(F)c(-c4c(O)cccc4F)c(Cl)cc23)C[C@H]1C` [Compound 225, 1-((2R,5S)-4-(6-chloro-8-fluoro-7-(2-fluoro-6-hydroxyphenyl)-2-(1-methyl-1H-pyrazol-4-yloxy)quinazolin-4-yl)-2,5-dimethyl-piperazin-1-yl) prop-2-en-1-one]: “++ (++ indicates binding activity from 50 to 90%)”; for `C=CC(=O)N1C[C@H](C)N(c2nc(OCCCN3CCC(F)(F)C3)nc3c(F)c(-c4c(O)cccc4F)c(Cl)cc23)C[C@H]1C` [Compound 230, 1-((2R,5S)-4-(6-chloro-2-(3-(3,3-difluoropyrrolidin-1-yl)propoxy)-8-fluoro-7-(2-fluoro-6-hydroxyphenyl)quinazolin-4-yl)-2,5-dimethyl-piperazin-1-yl) prop-2-en-1-one]: “++ (++ indicates binding activity from 50 to 90%)”; for `C=CC(=O)N1C[C@H](C)N(c2nc(OCCCN3CCC(F)(F)C3)nc3c(F)c(-c4c(C)ccc5[nH]ncc45)c(Cl)cc23)C[C@H]1C` [Compound 231, 1-((2R,5S)-4-(6-chloro-2-(3-(3,3-difluoropyrrolidin-1-yl)propoxy)-8-fluoro-7-(5-methyl-1H-indazol-4-yl)quinazolin-4-yl)-2,5-dimethyl-piperazin-1-yl) prop-2-en-1-one]: “++ (++ indicates binding activity from 50 to 90%)”.

For the origin of these results see US10646488B2 (Araxes Pharma LLC, priority 2016, dated 2020).
